Measured values reported in paper PMC9120478 (Nature Communications, 2022).
Changes are numbered by the printed parent chain.

How the values were obtained:
TRPV3-F633A = target: T1, TRPV3-F633A (Mus musculus, UniProt Q8K424, F633A); assay: Fura-2 ratiometric Ca2+ uptake, inhibition of 2-APB-evoked response; type: cell-based
T1 construct: expressed in transfected cells; host or cells: HEK 293 S GnTI- cells (baculovirus transduction)
T1 sequence (Q8K424 1-791 F633A): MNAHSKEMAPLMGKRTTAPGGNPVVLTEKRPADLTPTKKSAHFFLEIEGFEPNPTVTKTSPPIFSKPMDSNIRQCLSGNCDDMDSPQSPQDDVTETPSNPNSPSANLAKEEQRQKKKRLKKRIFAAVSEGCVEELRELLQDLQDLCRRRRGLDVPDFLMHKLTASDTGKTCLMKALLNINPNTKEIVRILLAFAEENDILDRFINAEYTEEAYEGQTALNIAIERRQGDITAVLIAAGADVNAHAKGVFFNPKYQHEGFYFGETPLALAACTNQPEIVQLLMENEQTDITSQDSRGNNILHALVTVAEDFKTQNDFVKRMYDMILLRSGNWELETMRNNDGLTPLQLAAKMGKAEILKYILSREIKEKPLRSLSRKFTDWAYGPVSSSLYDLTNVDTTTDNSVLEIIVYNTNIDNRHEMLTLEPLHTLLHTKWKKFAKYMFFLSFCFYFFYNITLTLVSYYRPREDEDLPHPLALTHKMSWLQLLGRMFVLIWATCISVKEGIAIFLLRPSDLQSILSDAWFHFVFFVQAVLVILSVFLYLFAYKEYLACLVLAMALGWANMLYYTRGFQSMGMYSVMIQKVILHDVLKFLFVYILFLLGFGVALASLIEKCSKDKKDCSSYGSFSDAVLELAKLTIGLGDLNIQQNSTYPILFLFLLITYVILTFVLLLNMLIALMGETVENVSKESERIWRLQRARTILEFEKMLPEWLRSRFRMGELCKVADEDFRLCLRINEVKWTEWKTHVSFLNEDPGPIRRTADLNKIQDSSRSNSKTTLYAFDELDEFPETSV
Text: (§1) The portal site in TRPV3 has not been previously shown to bind small-molecule inhibitors. This site, however, was originally proposed to be an entry pathway for local anesthetics to the pore of sodium channels[47]–[49] and found to accommodate cannabidiol in TRPV2, a closely-related representative of the vanilloid subfamily of TRP channels. […] We concluded that the Y594A mutation altered gating properties of TRPV3 and excluded this mutant from further analysis.
(§2) GFP-free C-terminally strep-tagged wild-type TRPV3, TRPV3-Y564A, TRPV3-Y594A, TRPV3-F633A, TRPV3-I663W, and TRPV3-F666A were expressed in HEK 293 S GnTI^− cells as previously described[41],[42],[53]. In short, 48 h after transduction, 1-ml aliquots of cell suspension were collected by centrifugation at 550 g for 5 min using an Eppendorf 5424 centrifuge. The cells were resuspended in the pre-warmed modified HEPES-buffered saline (HBS) containing 118 mM NaCl, 4.8 mM KCl, 1 mM MgCl2, 5 mM D-glucose, and 10 mM HEPES pH 7.4 and 5 μg/ml Fura-2 AM (Thermo Fisher Scientific) and incubated for 45 min at 37 °C. The Fura-2-loaded cells were then centrifuged for 5 min at 550 g, resuspended in the pre-warmed, modified HBS and incubated again for 30 min at 37 °C in the dark. The cells were subsequently pelleted and washed twice in the modified HBS. The washed cell pellets were kept on ice in the dark before taking an aliquot for fluorescence measurements. […] We used the lower CaCl2 concentration than before[42],[28] (2.5 mM) to minimize non-specific effects, which often appeared as a drift in the Fura-2 signal at high Ca^2+ concentration, presumably due to cell death as a result of calcium overload. Fluorescence measurements were conducted using a QuantaMaster 40 spectrofluorometer (Photon Technology International) at room temperature in a quartz cuvette under constant stirring. After 60 s since the beginning, the recording was paused and 2-APB was added. After the addition of 2-APB, the recording was continued for the additional 140 s. Changes in intracellular Ca^2+ were measured by taking the ratio of fluorescence emitted at 510 nm at the excitation wavelength of 340 nm and 380 nm. […] The data were processed using Origin 9.0 (OriginLab) software.

TRPV3-I663W = target: T2, TRPV3-I663W (Mus musculus, UniProt Q8K424, I663W); assay: as above; type: cell-based; conditions: n = 3
T2 construct: expressed in transfected cells; host or cells: HEK 293 S GnTI- cells (baculovirus transduction)
T2 sequence (Q8K424 1-791 I663W): T1 sequence (Q8K424 1-791 F633A) with A633F, I663W
Text: as §1, §2

[1] = no reference given; cited from earlier work
TRPV3 = conditions: cited from earlier work
[2] = test system: TRPV3 I674A gate residue mutant; conditions: cited from earlier work

Compound: CCCCOc1ccc(C(=O)CCN2CCCCC2)cc1 [dyclonine, 1-(4-butoxyphenyl)-3-piperidin-1-ylpropan-1-one]
- IC50 of F633A compared to wild-type channels (TRPV3-F633A): three times smaller
- IC50 (TRPV3-F633A; 200 µM 2-APB, n = 6, read-out: IC50, inhibition of F633A mutant): 9.8 ± 0.7 µM
- nHill of inhibition curve, F633A (TRPV3-F633A; logistic fit, n = 6): 1.68 ± 0.19
- IC50 (TRPV3-I663W; 200 µM 2-APB, read-out: IC50, inhibition of I663W mutant): 31.5 ± 1.6 µM
- nHill of inhibition curve, I663W (TRPV3-I663W; logistic fit): 1.63 ± 0.07
- pKa [1]: 8.36
- temperature-dependence of inhibition (TRPV3; TRPV3 activation by an infrared laser): lack of temperature-dependence
- effect on TRPV3 currents evoked by heat (TRPV3): inhibits
- voltage-dependence of TRPV3 inhibition (TRPV3): no voltage-dependence
- inhibitory potency at I674A mutant [2]: reduced inhibitory potency
